Assay results reported in US11267825B2 (AICURIS GMBH & CO. KG, priority 2017, dated 2022).

Key:
[1] = system: HBV; assay: Determination of HBV DNA from the supernatants of HepAD38 cells (anti-HBV activity); format: cell-based, hepatitis B virus; conditions: Hepatitis B virus, 144 h; HBV DNA in HepAD38 supernatant at day 6; read-out: Cell Activity (EC50)
In short: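 EC50 values were obtained by non-linear regression of HBV DNA copy numbers measured by qPCR against pCH-9/3091 plasmid standards. The DNA came from filtered supernatants collected on day 6. Before that, tetracycline-withdrawn HepAD38 cells had been exposed to serial half-log compound dilutions, with tetracycline-treated cells as the non-producing control.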

[2] = target: HBV core protein (UniProt P03146); format: biochemical; conditions: read-out: Assembly Activity (IC50); BODIPY-FL labelled core protein, assembly started with NaCl, read after 6 min
Sequence of HBV core protein (P03146 whole entry, looked up, the tested form may be a part): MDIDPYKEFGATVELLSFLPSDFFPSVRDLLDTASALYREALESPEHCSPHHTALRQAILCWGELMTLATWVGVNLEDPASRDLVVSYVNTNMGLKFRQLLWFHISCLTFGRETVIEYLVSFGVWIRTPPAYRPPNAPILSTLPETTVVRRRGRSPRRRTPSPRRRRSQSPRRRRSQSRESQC
In short: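 Compounds tested at 8 concentrations in 0.5-log steps from 100, 31.6 or 10 μM against 1.0–2.0 μM BODIPY-FL-labelled Cys150 core dimers (residues 1–149), 50 mM HEPES pH 7.5. NaCl ([…] final) triggered assembly; quenching read at 6 min, 477/525 nm, with 2.5 M and 0 M NaCl as controls; EC50 by nonlinear fit.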

| SMILES | EC50 [1] [µM] | IC50 [2] [µM] |
| --- | --- | --- |
| Cc1cc(F)cc2[nH]c(C(=O)N3CCc4nc(N)sc4C3)cc12 [Example 169, 5-(6-fluoro-4-methyl-1H-indole-2-carbonyl)-4H,5H,6H,7H-[1,3]thiazolo[5,4-c]pyridin-2-amine] | < 1 | < 5 |
| Cc1cccc2[nH]c(C(=O)N3CCc4nc(NC5CCOC5)sc4C3)cc12 (stereo not shown) [Example 76, 5-(4-methyl-1H-indole-2-carbonyl)-N-(oxolan-3-yl)-4H,5H,6H,7H-[1,3]thiazolo[5,4-c]pyridin-2-amine] | < 1 | < 5 |
| Cc1nc2c(s1)CN(C(=O)c1cc3cccc(Cl)c3[nH]1)CC2 [Example 189, 7-chloro-2-{2-methyl-4H,5H,6H,7H-[1,3]thiazolo[5,4-c]pyridine-5-carbonyl}-1H-indole] | 1 to 10 | 5 to 10 |
| O=C(c1cc2ccccc2[nH]1)N1CCc2nc(NC3(CO)CC3)sc2C1 [Example 230, (1-{[5-(1H-indole-2-carbonyl)-4H,5H,6H,7H-[1,3]thiazolo[5,4-c]pyridin-2-yl]amino}cyclopropyl)methanol] | < 1 | < 5 |
| C=Cc1cccc2[nH]c(C(=O)N3CCc4nc(N)sc4C3)cc12 [Example 13, 5-(4-ethenyl-1H-indole-2-carbonyl)-4H,5H,6H,7H-[1,3]thiazolo[5,4-c]pyridin-2-amine] | 1 to 10 | 5 to 10 |
| CC(C)(C)OC(=O)N1CCC(CNc2nc3c(s2)CN(C(=O)c2cc4ccccc4[nH]2)CC3)C1 (stereo not shown) [Example 392, tert-butyl 3-({[5-(1H-indole-2-carbonyl)-4H,5H,6H,7H-[1,3]thiazolo[5,4-c]pyridin-2-yl]amino}methyl)pyrrolidine-1-carboxylate] | < 1 | < 5 |
| O=C(c1cc2ccccc2[nH]1)N1CCc2nc(NC[C@@H]3C[C@@H]4CC[C@H]3O4)sc2C1 (racemic) [Example 33, (+/−)-trans-5-(1H-indole-2-carbonyl)-N-{[(1R,2S,4S)-7-oxabicyclo[2.2.1]heptan-2-yl]methyl}-4H,5H,6H,7H-[1,3]thiazolo[5,4-c]pyridin-2-amine] | < 1 | < 5 |
| Cc1nc2c(s1)CN(C(=O)c1cc3cccc(OC(F)F)c3[nH]1)CC2 [Example 182, 7-(difluoromethoxy)-2-{2-methyl-4H,5H,6H,7H-[1,3]thiazolo[5,4-c]pyridine-5-carbonyl}-1H-indole] | 1 to 10 | < 100 |
| Cc1cccc2[nH]c(C(=O)N3CCc4nc(NCC5(CO)CC5)sc4C3)cc12 [Example 64, [1-({[5-(4-methyl-1H-indole-2-carbonyl)-4H,5H,6H,7H-[1,3]thiazolo[5,4-c]pyridin-2-yl]amino}methyl)cyclopropyl]methanol] | < 1 | < 5 |
| O=C(c1cc2ccccc2[nH]1)N1CCc2nc(NCC3(c4ccccn4)CCC3)sc2C1 [Example 432, 5-(1H-indole-2-carbonyl)-N-{[1-(pyridin-2-yl)cyclobutyl]methyl}-4H,5H,6H,7H-[1,3]thiazolo[5,4-c]pyridin-2-amine] | < 1 | < 5 |
| COCCNc1nc2c(s1)CN(C(=O)c1cc3ccccc3[nH]1)CC2 [Example 97, 5-(1H-indole-2-carbonyl)-N-(2-methoxyethyl)-4H,5H,6H,7H-[1,3]thiazolo[5,4-c]pyridin-2-amine] | < 1 | < 5 |
| O=C(c1cc2c(Cl)cccc2[nH]1)N1CCc2nc(NC3(CO)CCC3)sc2C1 [Example 224, (1-{[5-(4-chloro-1H-indole-2-carbonyl)-4H,5H,6H,7H-[1,3]thiazolo[5,4-c]pyridin-2-yl]amino}cyclobutyl)methanol] | < 1 | < 5 |
| CS(=O)(=O)NC(=O)Nc1nc2c(s1)CN(C(=O)c1cc3ccccc3[nH]1)CC2 [Example 393, 1-[5-(1H-indole-2-carbonyl)-4H,5H,6H,7H-[1,3]thiazolo[5,4-c]pyridin-2-yl]-3-methanesulfonylurea] | 1 to 10 | 5 to 10 |
| O=C(Nc1nc2c(s1)CN(C(=O)c1cc3ccccc3[nH]1)CC2)C1CCCCO1 (stereo not shown) [Example 315, N-[5-(1H-indole-2-carbonyl)-4H,5H,6H,7H-[1,3]thiazolo[5,4-c]pyridin-2-yl]oxane-2-carboxamide] | < 1 | 5 to 10 |
| Cc1nc2c(s1)CN(C(=O)c1cc3cc(F)cc(F)c3[nH]1)CC2 [Example 163] | < 1 | < 5 |
| O=C(c1cc2ccccc2[nH]1)N1CCc2nc(NC3(CO)CCC3)sc2C1 [Example 48, (1-{[5-(1H-indole-2-carbonyl)-4H,5H,6H,7H-[1,3]thiazolo[5,4-c]pyridin-2-yl]amino}cyclobutyl)methanol] | < 1 | < 5 |

| SMILES | EC50 [1] [µM] | IC50 [2] [µM] |
| --- | --- | --- |
| O=C(c1cc2ccccc2[nH]1)N1CCc2nc(CO)sc2C1 [Example 31, [5-(1H-indole-2-carbonyl)-4H,5H,6H,7H-[1,3]thiazolo[5,4-c]pyridin-2-yl]methanol] | 1 to 10 | 5 to 10 |
| CC(F)(F)c1cc(F)cc2[nH]c(C(=O)N3CCc4nc(N)sc4C3)cc12 [Example 290, 5-[4-(1,1-difluoroethyl)-6-fluoro-1H-indole-2-carbonyl]-4H,5H,6H,7H-[1,3]thiazolo[5,4-c]pyridin-2-amine] | < 1 | < 5 |
| Nc1nc2c(s1)CN(C(=O)c1cc3cc(F)cc(F)c3[nH]1)CC2 [Example 160, 5-(5,7-difluoro-1H-indole-2-carbonyl)-4H,5H,6H,7H-[1,3]thiazolo[5,4-c]pyridin-2-amine] | < 1 | < 5 |
| CC(O)c1cccc2[nH]c(C(=O)N3CCc4nc(N)sc4C3)cc12 (stereo not shown) [Example 10, 1-(2-{2-amino-4H,5H,6H,7H-[1,3]thiazolo[5,4-c]pyridine-5-carbonyl}-1H-indol-4-yl)ethan-1-ol] | 1 to 10 | < 100 |
| CC(O)c1cc(F)cc2[nH]c(C(=O)N3CCc4nc(NCC5CCOC5)sc4C3)cc12 (stereo not shown) [Example 258, 1-[6-fluoro-2-(2-{[(oxolan-3-yl)methyl]amino}-4H,5H,6H,7H-[1,3]thiazolo[5,4-c]pyridine-5-carbonyl)-1H-indol-4-yl]ethan-1-ol] | 1 to 10 | < 100 |
| O=C(Nc1nc2c(s1)CN(C(=O)c1cc3ccccc3[nH]1)CC2)NS(=O)(=O)C1CC1 [Example 390, 3-(cyclopropanesulfonyl)-1-[5-(1H-indole-2-carbonyl)-4H,5H,6H,7H-[1,3]thiazolo[5,4-c]pyridin-2-yl]urea] | < 100 | < 5 |
| O=C(c1cc2ccccc2[nH]1)N1CCc2ncsc2C1 [Example 200, 2-{4H,5H,6H,7H-[1,3]thiazolo[5,4-c]pyridine-5-carbonyl}-1H-indole] | 1 to 10 | < 5 |
| COC1CCC(Nc2nc3c(s2)CN(C(=O)c2cc4ccccc4[nH]2)CC3)CC1 (stereo not shown) [Example 310, 5-(1H-indole-2-carbonyl)-N-(4-methoxycyclohexyl)-4H,5H,6H,7H-[1,3]thiazolo[5,4-c]pyridin-2-amine] | < 1 | 5 to 10 |
| N#Cc1cccc2[nH]c(C(=O)N3CCc4nc(NCC5CCOC5)sc4C3)cc12 (stereo not shown) [Example 104, 5-(4-cyano-1H-indole-2-carbonyl)-N-[(oxolan-3-yl)methyl]-4H,5H,6H,7H-[1,3]thiazolo[5,4-c]pyridin-2-amine] | 1 to 10 | 5 to 10 |
| O=C(c1cc2ccccc2[nH]1)N1CCc2nc(OCc3ccccc3)sc2C1 [Example 158, 2-[2-(benzyloxy)-4H,5H,6H,7H-[1,3]thiazolo[5,4-c]pyridine-5-carbonyl]-1H-indole] | 1 to 10 | < 100 |
| CC(=O)N1CCC(CNc2nc3c(s2)CN(C(=O)c2cc4ccccc4[nH]2)CC3)C1 (stereo not shown) [Example 391, 1-[3-({[5-(1H-indole-2-carbonyl)-4H,5H,6H,7H-[1,3]thiazolo[5,4-c]pyridin-2-yl]amino}methyl)pyrrolidin-1-yl]ethan-1-one] | < 1 | < 5 |
| O=C(c1cc2c(C(F)F)cccc2[nH]1)N1CCc2nc(NCC3CCOC3)sc2C1 (stereo not shown) [Example 325, 5-[4-(difluoromethyl)-1H-indole-2-carbonyl]-N-[(oxolan-3-yl)methyl]-4H,5H,6H,7H-[1,3]thiazolo[5,4-c]pyridin-2-amine] | < 1 | < 5 |
| O=C(c1cc2c(F)c(F)ccc2[nH]1)N1CCc2nc(NCC3CCOC3)sc2C1 (stereo not shown) [Example 112, 5-(4,5-difluoro-1H-indole-2-carbonyl)-N-[(oxolan-3-yl)methyl]-4H,5H,6H,7H-[1,3]thiazolo[5,4-c]pyridin-2-amine] | < 1 | < 5 |
| CC(O)c1cc(F)cc2[nH]c(C(=O)N3CCc4nc(NCC5(CO)CC5)sc4C3)cc12 (stereo not shown) [Example 249, 1-{6-fluoro-2-[2-({[1-(hydroxymethyl)cyclopropyl]methyl}amino)-4H,5H,6H,7H-[1,3]thiazolo[5,4-c]pyridine-5-carbonyl]-1H-indol-4-yl}ethan-1-ol] | < 1 | 5 to 10 |
| Cc1ccc(F)c2[nH]c(C(=O)N3CCc4nc(N)sc4C3)cc12 [Example 86, 5-(7-fluoro-4-methyl-1H-indole-2-carbonyl)-4H,5H,6H,7H-[1,3]thiazolo[5,4-c]pyridin-2-amine] | < 1 | < 5 |
| CCOCC(=O)Nc1nc2c(s1)CN(C(=O)c1cc3ccccc3[nH]1)CC2 [Example 4, 2-ethoxy-N-[5-(1H-indole-2-carbonyl)-4H,5H,6H,7H-[1,3]thiazolo[5,4-c]pyridin-2-yl]acetamide] | < 1 | < 5 |
